From publication PMC5443346 (Bioorganic & medicinal chemistry, 2017) come the findings set out here.

In this assay the test system is P. Falciparum 3D7. As to the kind of experiment: SYBR Green I growth inhibition assay, 3D7 strain. The note with it: Plasmodium falciparum, 3D7, 72 h, read-out: P. Falciparum 3D7 IC50. The class given is cell-based.

Take `CCN(CC)CCCC(C)Nc1ccnc2cc(Cl)ccc12` (stereo not shown) [Chloroquine, chloroquine]: the IC50 came out at 52 ± 12 nM.

Broadly, the IC50 is the concentration at which inhibition is half-maximal.
